A short description of series [1]: Tropifexor in NASH patients, Parts A and B of study CLJN452A2202.
A short description of series [2]: Drug-drug interaction study of tropifexor and licogliflozin in healthy but overweight to obese subjects. In kind it is in vivo, human. The procedure: Sixteen subjects with a BMI of 25 to 35 kg/m2 were enrolled. […] Standard safety assessments were performed, with adverse event monitoring. Steady state PK parameters from Period 1 or 2 (single agent PK) were compared with that from Period 3 (combination PK) to assess the effect of potential drug interaction.

Series [3] can be described thus: FLIGHT-FXR (NCT02855164) Part C interim analysis, tropifexor in fibrotic NASH. In kind it is in vivo, human. To be noted: for ALT, LS mean absolute change (SE) from baseline to Week 12: placebo −8.9 (4.19); for GGT, LS mean absolute change (SE) from baseline to Week 12: placebo −2.5 (3.55); for Body weight, LS mean absolute change (SE) from baseline to Week 12: placebo −1.14 (0.36).

The conditions of series [4]: NASH patients; cited from earlier work.
The test system of a further series is human hepatocytes. Description: LDL uptake by in vitro human hepatocytes treated with FXR agonists. In kind it is cell-based. The text has this:
To mitigate the increase in peripheric LDL, we hypothesize that treating the subjects in the evening (from about 6 pm to about […], e.g. from about 8 pm to about 11 pm, preferably around 9 pm) would be reduce the impact of the drug on LDL. […] In addition, during night time, the hepatocytes rely less on cholesterol coming from the food intake (LDL and others) since the body is then fasting but more on the intrahepatic production of cholesterol via HMGCOa reductase; the activity of this enzyme is the highest during the night. Indeed, in human, whilst the Cyp7A1 activity peak at 1 and 9 pm, intracellular cholesterol levels in hepatocytes are the highest during the night (between midnight and 4 AM).

A short description of series [5]: Licogliflozin 150 mg daily, 12 week treatment in obese patients / normoglycemic and dysglycemic subjects. In kind it is in vivo, human. The procedure: (§1) i.e., (2S,3R,4R,5S,6R)-2-(3-((2,3-dihydrobenzo[b][1,4]dioxin-6-yl)methyl)-4-ethylphenyl)-6-(hydroxymethyl)tetrahydro-2H-pyran-3,4,5-triol. […] Licogliflozin at 150 mg daily dose results in a significant weight loss in obese patients (˜6%) after 12 week treatment.

The nature of series [6]: Phase 2 dose range finding study of licogliflozin in obese patients (CLIK066B2201). The format is in vivo, human. To be noted: obese patients (placebo 19.2%). The procedure: A dose of 30 mg QD is expected to achieve approximately 70% of maximum observed efficacy (using weight loss as a downstream marker for efficacy; CLIK066B2201). Licogliflozin is currently being tested as 30 mg and 150 mg QD monotherapy in NASH (CLIK066X2204). […] To minimize the risk of GI adverse effects of the SGLT1 inhibition in the gut such as diarrhea, licogliflozin will be administered in the evening.

The nature of series [7]: Licogliflozin 2 week study in healthy subjects and patients with T2DM. The format is in vivo, human. The procedure:
as §1

Series [8] can be described thus: Dose finding study of licogliflozin in Japanese patients with obesity disease. Particulars: for placebo-subtracted percentage change in body weight from baseline at Week 12: Japanese patients with obesity disease. The format is in vivo, human. On the procedure: This study was a randomized, double-blind, placebo controlled, dose finding study to evaluate the effect of licogliflozin (2.5, 10, 25 and 50 mg qd) in 126 Japanese patients with obesity disease. The primary objective was to examine the dose-response relationship of licogliflozin treatment in body weight reduction relative to placebo at 12 weeks. The secondary objectives included assessment of responder rates, change in parameters related to complications, visceral and subcutaneous fat area, and safety through 12 weeks of treatment.

Series [9] is described as follows: Placebo-controlled, randomized Phase 2a study of licogliflozin in NASH patients, interim analysis (NCT03205150, CLIK066X2204). The format is in vivo, human. Particulars: for patients achieving at least 5% absolute reduction in liver fat: 12 weeks (placebo 18.8%); for proportion of patients with at least a 30% relative reduction in liver fat content: 12 weeks (placebo 25%); for patients reporting diarrhea (adverse event): 12 weeks (placebo 38.9%). On the procedure:
METHOD: Patients with histologically confirmed NASH (F1-F3) or phenotypic NASH (BMI≥27 kg/m^2 in non-Asians or 23 kg/m^2 in Asians, ALT≥50 (males) or 35 (females) and type 2 diabetes (T2DM)) received daily oral licogliflozin at 150 mg, 30 mg or placebo in a 2:2:1 ratio for 12 weeks (NCT03205150). The primary endpoint is the effect on ALT level after 12 weeks of treatment. Secondary endpoints include improvement in body weight, liver fat content and AST, amongst others. The study size is 110 of which 77 have completed (placebo (n=18); licogliflozin 30 mg (n=25) and licogliflozin 150 mg (n=34)) and are included in the interim analysis.

The mark [10] stands for this setting: 10 to 90 μg daily for 12 weeks, NASH patients.
[11] abbreviates: all doses (10, 30, 60 and 90 μg), 12 weeks.
[12] abbreviates: tropifexor 140 μg in the presence of licogliflozin 50 mg vs alone.
[13] abbreviates: 200 μg once daily, n = 46, P < 0.001.
Setting [14] is: licogliflozin 50 mg in the presence of tropifexor 140 μg vs alone.

“Also recorded” adds a separate entry of the source.

Take `O=C(O)c1cc(F)c2nc(N3C4CC[C@H]3CC(OCc3c(-c5ccccc5OC(F)(F)F)noc3C3CC3)C4)sc2c1` (stereo partly drawn) [tropifexor, 2-[(1R,3r,5S)-3-({5-cyclopropyl-3-[2-(trifluoromethoxy)phenyl]-1,2-oxazol-4-yl}methoxy)-8-azabicyclo[3.2.1]octan-8-yl]-4-fluoro-1,3-benzothiazole-6-carboxylic acid]: in series [1] (setting [10]), the “biologic activity (GGT)” value is “clear dose response” and the “target engagement (FGF19)” value is “clear dose response”. In series [1] (setting [11]), the “ALT compared to placebo” value is “reduced across all tropifexor doses” and the “hepatic fat fraction compared to placebo” value is recorded as “reduced across all tropifexor doses”. Besides, the tolerability entry in series [1] (up to 90 μg daily) is “generally well tolerated up to 90 μg daily without safety signals”. Also, in [2] (setting [12]), the “decrease of mean peak plasma concentration (Cmax,ss)” value came to 15% and the “decrease of total exposure (AUCtau,ss)” value is reported as 12%. In addition, the “low density lipoprotein-cholesterol (LDL-C)” value in series [3] (140 μg and 200 μg) is “dose-related increase”. The “frequency of serious adverse events” value in [3] (140 μg and 200 μg vs placebo) is “low and comparable across groups”. Moreover, in [3] (140 μg once daily, n = 41, P = 0.058), the “ALT, LS mean absolute change (SE) from baseline to Week 12” value is −20.1 (4.57) U/L. Besides, the “GGT, LS mean absolute change (SE) from baseline to Week 12” value in series [3] (140 μg once daily, n = 44, P < 0.001) is −39.2 (3.70) U/L. In addition, the “Body weight, LS mean absolute change (SE) from baseline to Week 12” value in series [3] (140 μg once daily, n = 46, P = 0.010) was −2.46 (0.38) kg. Further, in [3] (140 μg, n=1 (placebo 0%)), the “treatment discontinuation rate due to pruritus” value turned out to be 2%. For the same compound, the “pre-specified endpoints at week 12” value in series [3] (200 μg once daily) is listed as “met”. In series [3] (200 μg once daily, n = 39, P = 0.013), the “ALT, LS mean absolute change (SE) from baseline to Week 12” value is reported as −23.6 (4.48) U/L. For the same compound, in [3] (setting [13]), the “Body weight, LS mean absolute change (SE) from baseline to Week 12” value was −3.20 (0.37) kg and the “GGT, LS mean absolute change (SE) from baseline to Week 12” value was −40.9 (3.62) U/L. For the same compound, in series [3] (200 μg, n=3 (placebo 0%)), the “treatment discontinuation rate due to pruritus” value turned out to be 6%. Further, in series [3] (both Tropifexor groups (140 μg, 200 μg)), the “patients with pruritus whose events had mild (Grade 1) severity” value is given as over 60%. For the same compound, in series [3] (higher doses (140 μg, 200 μg)), the “ALT, HFF, and body weight after 12 weeks” value is “robust and dose-dependent decreases”; the “safety and tolerability after 12 weeks” value is “good safety and tolerability”.

In the case of `CC[C@H]1[C@@H](O)[C@@H]2[C@H](CC[C@]3(C)[C@@H]([C@H](C)CCC(=O)O)CC[C@@H]23)[C@@]2(C)CC[C@@H](O)C[C@@H]12` [obeticholic acid, 6α-ethyl-chenodeoxycholic acid], the “safety on long term administration” value in series [4] is “associated with pruritus, as well as with lipid abnormalities”. The “LDL uptake by hepatocytes” value with human hepatocytes (FIG. 5) is reported as “reduce the LDL uptake by hepatocytes in a dose dependent manner”; with human hepatocytes (FIG. 5, listed as OCA) it was “decreased LDL uptake”.

For `O=C(O)c1ccnc(N2CC(O)(c3ccc(OCc4c(-c5c(Cl)cccc5Cl)noc4C4CC4)cc3Cl)C2)c1` [cilofexor], the “LDL uptake by hepatocytes” value in the series on human hepatocytes (FIG. 5) is “reduce the LDL uptake by hepatocytes in a dose dependent manner; also recorded: decreased LDL uptake”.

Regarding `CCc1ccc([C@@H]2O[C@H](CO)[C@@H](O)[C@H](O)[C@H]2O)cc1Cc1ccc2c(c1)OCCO2` [licogliflozin, (2S,3R,4R,5S,6R)-2-(3-((2,3-dihydrobenzo[b][1,4]dioxin-6-yl)methyl)-4-ethylphenyl)-6-(hydroxymethyl)tetrahydro-2H-pyran-3,4,5-triol], in series [5] (150 mg daily dose, obese patients, after 12 week treatment), the weight loss is about 6%. The safety and tolerability entry is “generally safe and well tolerated with diarrhea observed as a dose-limiting toxicity” in series [5] (150 mg once daily, twelve weeks, normoglycemic and dysglycemic subjects); “safe and tolerated” in series [7]; “safe and tolerable” in series [9] (12 weeks of treatment, NASH patients). The incidence of diarrhea in series [6] (2.5 mg QD for 24 weeks) is recorded as 18.4%; in [6] (10 mg QD for 24 weeks), 15.8%; in [6] (50 mg QD for 24 weeks), 55.3%; in [6] (150 mg QD for 24 weeks), 68.8%. Further, in [2] (setting [14]), the “increase of mean peak plasma concentration” value is on record as 8%. Further, the “increase of total exposure” value in series [2] (setting [14]) came out at 12%. The pharmacokinetic profile result in series [7] was “favorable pharmacokinetic profile”. The placebo-adjusted weight loss entry in [7] (over 2 weeks) is recorded as “up to 3%”. Also, the “placebo-subtracted percentage change in body weight from baseline at Week 12” value is −1.99% in [8] (2.5 mg qd), −3.00% in [8] (10 mg qd), −3.54% in [8] (25 mg qd) and −3.91% in series [8] (50 mg qd). Moreover, the safety result in series [8] (2.5, 10, 25 and 50 mg qd over 12 weeks) is “safe with no ketoacidosis and no new safety signals”. In addition, the “body weight, dose dependence” value in [8] (2.5, 10, 25 and 50 mg qd, 12 weeks) is “dose-dependent reduction in body weight”. Further, the “patients achieving reduction of ≥3% in body weight” value in series [8] (10, 25 and 50 mg qd dose groups (placebo 7.1%; p≤0.002 for all)) is on record as at least 50%. In addition, the “placebo adjusted reduction from baseline levels of ALT” value in series [9] (30 mg daily oral, 12 weeks, p=NS) was 19%; in series [9] (150 mg daily oral, 12 weeks, p=0.036) it was 27%. Further, the “patients achieving at least 5% absolute reduction in liver fat” value came out at 43.5% in series [9] (30 mg) and 63.3% in [9] (150 mg). Further, the “proportion of patients with at least a 30% relative reduction in liver fat content” value in [9] (30 mg) came to 39.5%; in [9] (150 mg) it was 66.7%. Further, the figures for the “patients reporting diarrhea (adverse event)” value in series [9] (30 mg) and in [9] (150 mg) were 40% and 76.5%, respectively. Moreover, the “placebo adjusted reduction in HbA1c (absolute change)” value turned out to be 0.81% in series [9] (30 mg, 12 weeks, p=0.001) and 0.96% in [9] (150 mg, 12 weeks, p=0.0001). Also, the “reduction in GGT” value in [9] (30 mg, 12 weeks, p=0.014) worked out at 26%; in [9] (150 mg, 12 weeks, p=0.001), 32%. For the same compound, the “reduction in AST” value in series [9] (30 mg, 12 weeks, p=0.043) came out at 23%; in [9] (150 mg, 12 weeks, p=0.004), 30%. Also, the “absolute reduction in liver fat” value stood at 2.71% in [9] (30 mg, 12 weeks, p=NS) and 4.45% in series [9] (150 mg, 12 weeks, p=0.01). Further, the “relative reduction in liver fat content” value came out at 10% in [9] (30 mg, 12 weeks, p=NS) and 22% in [9] (150 mg, 12 weeks, p=0.01). Also, the “ALT and liver fat, interim analysis” value in series [9] (150 mg QD monotherapy in NASH) is “promising reduction of ALT and liver fat”. In addition, the “gastrointestinal events (mainly diarrhea), interim analysis” value in series [9] (150 mg QD monotherapy in NASH) is on record as “significant incidence of gastrointestinal events”. Moreover, the “diarrhea events that were mild” value in [9] (all diarrhea events of the study) is recorded as 97.4%. The “placebo adjusted reduction in body weight” value in series [9] (both doses (150 mg and 30 mg), 12 weeks, p=0.0001) was about 4%.

(Values after patent US20220265619A1, “COMBINATION TREATMENT OF LIVER DISEASES USING FXR AGONISTS” (Novartis AG, priority 2019, published 2022).)
